Data: patent publication US6753171B2, “Site-specific cell perforation technique” (Center for Advanced Science and Technology Incubation, Ltd., priority 1998, dated 2004)

How the values were obtained:
PC12 cells [1] = test: Cell survival rate after injection treatment (LY maintaining rate); format: cell-based
Description: The survival rate of cells to which microinjection treatment by a physical shear force was given, and that for photosensitizing microinjection treated cells were compared.
LY was injected into cells by microinjection. In dead cells in which the cell membrane had collapsed, LY rapidly diffuses, and staining is lost (Cell, 14, 741-759 (1978)). Therefore, LY maintaining rate of injection treated cells was used as an indicator of cell survival rate, and the survival rate after 3 to 6 days following injection treatment was compared.

[2] = Solubility of BAT in aqueous solution; format: physicochemical; conditions: within acidic aqueous solutions (bivalent positive charge)
Excerpt: The thiophene oligomer having amino-methyl residue at the terminal, has a high solubility compared with other derivatives of the same type because of this amino-methyl residue. Solubility changes with the dissociation state of this amino-methyl residue. […] In aqueous solutions near a pH region suitable for the body (around 7.4), it has a feature of having both positively-charged monovalent BAT maintaining a high solubility, and non-charged BAT that agglutinates easily into a colloid state. Under this pH condition, by perfusing cells within a BAT-dispersed solution, this molecule can easily attach onto the cell surface. The hydrophilicity of BAT molecule is a novel feature that is not seen in either modified thiophene oligomers starting with α-terthienyl, or in other molecules designed as conductive high molecular monomers.

PC12 cells [3] = test: Microinjection treatment using site-specific membrane disruption: success rate of Lucifer Yellow injection; format: cell-based; conditions: BAT 100 μM in injection solution, capillary approach speed 7 μm s^-1, n=30
Description: To determine the success or failure of microinjection treatment, Lucifer Yellow CH(LY), a water-soluble fluorescent dye, was added to the injection solution. After injection treatment, if a yellow fluorescence of LY origin was observed within the cell by a fluorescent microscope, then, the injection treatment was judged to have been successful. The variation of the success rate of cell injection was evaluated by the presence or absence of the photosensitizer BAT within the injection solution, and the presence or absence of a BAT excitation light exposure.
Normally, to make microinjection successful, a glass capillary having an opening with a diameter of a few hundred nanometers should be contacted with cells at high speed, to instantly penetrate/perforate the cell membrane or the nucleus membrane physically. […] The micromanipulator was attached to a fluorescence microscope (OLYMPUS OPTICAL, IX70 fluorescence microscope spec). Light of a 100 W […], which is the epi-illumination fluorescence light source equipped in the microscope, was treated by transmitting through an ultraviolet ray excitation filter set (OLYMPUS OPTICAL, U-MWU mirror unit), and the resulting ultraviolet light was used as the excitation source of the photosensitizer. […]

nerve cell line PC12 = test: Measurement of membrane resistance and membrane potential following light exposure (patch clamp); format: cell-based; conditions: for change in cell membrane resistance/membrane potential following light exposure: 363 nm argon ion laser
Description: Since there is a need to monitor cellular level micro membrane damages, including the recovering process within seconds to a few minutes, the intermembrane potential of the cell membrane, or the ionic current passing through the cell membrane was measured using the patch clamp method, which is an electrophysiology experiment technique.
The photosensitizer BAT was dispersed in HEPES (25 mM,pH7.4) buffer.
Cells were incubated at room temperature within an electrophysiology experimental culture medium.
2H2O, 2.4 mM; MgSO4. 7H2O, 1.3 mM; glucose 10 mM, in which the pH was adjusted to […] by finally adding NaOH. To prevent any influence due to evaporation, the electrophysiology experiment culture medium was changed every 40 min at the latest by a pipette.
BAT was added to a final concentration of 49 μM. Exposed light quantity was in three stages, being 0.47 J/cm^2, 0.94 J/cm^2, and 1.57 J/cm^2.
The solution within the patch electrodes had the composition of KCl 132 mM, NaCl, 8 mM, MgCl2, 2 mM, HEPES 30 mM, Na2ATP 4 mM, GTP 0.3 mM, and EGTA 0.5 mM, in which the pH was adjusted to 7.3 by finally adding NaOH.
As the excitation power source, 50 mW, 363 nm argon ion laser standardly equipped within a confocal laser scanning microscope (CLSM) MRC-1000 UV (BIO-RAD laboratories) was used. 1/16th (¼^th to the direction of the X axis and Y axis, 117 μm×170 μm) of the full screen of the microscope is scanned with the above-described laser beams. Adjustments were done so that the whole image of the patched target cell came into this area. 50 mW laser beam is a 100% output. According to the scanning speed, the exposed duration was selected from 1/16, ¼, 1/32 sec. The light reduction by the lens was also utilized. When the zoom function was used, the light is scanned on a concentrated area smaller than the normal area, and therefore, the light quantity per unit area increases in proportion to the square of the zoom magnification. Since the excitation light has to pass through the plastic of the collagen-coated dish before reaching the cells, there is a necessity to consider light reduction.
Also, in the excitation light exposure, a TTL signal coupled with an electrophysiological recording is suitably transmitted to the excitation light source, to synchronize the exposure and electrical measurement.
At the start of the electrophysiological experiment, the cell membrane potential was maintained between −80 to −60 mV. The resistance of the patch electrode was 3˜4 MΩ, and the above described solution was filled into electrodes, and used.
As for the amplifier for cell membrane potential measurement, Axopatch 1-D (Axon Instruments) was used. The membrane resistance was calculated by the change in membrane potential when a 1 Hz rectangular hyperpolarizing current was passed through for 350 mili sec. […] The measured potential/current value was analyzed by Axoscope ver. 1.1 software (Axon Instruments).
Membrane resistance reflects membrane permeation inhibiting capacity, and membrane potential reflects the active ion transport capacity due to the functions of various intermembrane ion transportation systems and ion permeation inhibiting capacity.
A microinjector was connected to a micro glass pipette held by a micromanipulator, and BAT dispersed solution (BAT concentration was 2 mM, aqueous solvent) was filled into this micro glass pipette. The tip of this glass pipette was connected to a patch electrode and setup within 200 μm proximity of the cells in which the membrane potential/membrane resistance was to be measured. BAT dispersed solution was released by compressing the micro glass pipette to attach BAT onto the cell membrane of target cells.

For `NCc1ccc(-c2ccc(-c3ccc(CN)s3)s2)s1` [BAT, 5′5″-bis(aminomethyl)-2,2′:5′,2″-terthiophene], the “cell survival rate (LY retention rate)” value (PC12 cells [1]; BAT+LY without UV, 3rd day following treatment) was 30%, the “cell survival rate (LY retention rate)” value (PC12 cells [1]; BAT+LY+UV photosensitizing injection, three to six days following injection treatment) was 90% and the solubility [2] was “dissolves easily”. The “success rate of the injection” value (PC12 cells [3]; 2 min ultraviolet exposure) was 80%, the “success rate of the injection” value (PC12 cells [3]; no light exposure) was 13% and the “change in cell membrane resistance/membrane potential following light exposure” value (nerve cell line PC12; BAT 49 μM, light quantity 0.47 J/cm^2 (A)) was “a big change was not seen”. The “change in cell membrane resistance/membrane potential following light exposure” value (nerve cell line PC12; BAT 49 μM, light quantity 0.94 J/cm^2 (B)) was “a decrease in cell membrane resistance/depolarization of the membrane potential occurred”, the “change in cell membrane resistance/membrane potential following light exposure” value (nerve cell line PC12; BAT 49 μM, light quantity 1.57 J/cm^2 (C)) was “both disappeared” and the “time to disappearance of cell membrane resistance/membrane potential” value (nerve cell line PC12; BAT 49 μM, light quantity 1.57 J/cm^2 (C), after a few second lag period) was 8 s. The “cell membrane potential after laser exposure” value (nerve cell line PC12; BAT 2 mM dispersed solution sprayed onto target cells by micro glass pipette (Example 4)) was “depolarization of the cell membrane potential was observed” and the “change in membrane resistance when only the axon of the cell was exposed to laser beams” value (nerve cell line PC12; only the axon exposed) was “a similar change in membrane resistance was observed”.
